# Assay results published in US8586551B2, “18-membered macrocycles and analogs thereof” (Optimer Pharmaceuticals, Inc., priority 2005, dated 2013).
# Columns and labels:
# [1] = system: C. difficile clinical isolates; test: MIC via agar dilution versus 110 clinical isolates of C. difficile; type: cell-based; details: 110 clinical isolates
# C. difficile = test: Post-antibiotic effect (PAE) in C. difficile; type: cell-based; details: at 4× the MIC, clinical isolate LC3
# Protocol: The term “PAE” or “post-antibiotic effect” refers to a well-established pharmacodynamic parameter that reflects the persistent suppression of bacterial growth following antibiotic exposure.
# Vancomycin and rifampin were tested additionally versus LC3.
# Because of the long duration of this effect, an exact PAE was not calculated.
Structure (SMILES),MIC range [1] [µg/mL],PAE (C. difficile)
"Cc1ncc([N+](=O)[O-])n1CCO [Metronidazole, reference compound]",0.025 to 0.5,
"CN[C@H](CC(C)C)C(=O)N[C@H]1C(=O)N[C@@H](CC(N)=O)C(=O)N[C@H]2C(=O)N[C@H]3C(=O)N[C@H](C(=O)N[C@H](C(=O)O)c4cc(O)cc(O)c4-c4cc3ccc4O)[C@H](O)c3ccc(c(Cl)c3)Oc3cc2cc(c3O[C@@H]2O[C@H](CO)[C@@H](O)[C@H](O)[C@H]2O[C@H]2C[C@](C)(N)[C@H](O)[C@H](C)O2)Oc2ccc(cc2Cl)[C@H]1O [Vancomycin, reference compound]",0.06 to 4,less than an hour
